According to patent US20240123079A1 (Seagen Inc., priority 2021, published 2024):

Tested on: CT26 cancer cells
Test: CT26 tumor model, in vivo anti-tumor activity
Set-up: species or system mouse
Conditions: CT26 tumor-bearing mice, q7dx3
Procedure: CT26 cancer cells (ATCC) were cultured in RPMI 1640 modified with 1 mM Sodium Pyruvate, 10 mM HEPES, 2.8 mL 45% Glucose (1.25 g) and supplemented with 10% fetal bovine serum and 1% Pen/Strep/Glutamine. CT26 cancer cells were implanted ([…] in 200 uL serum-free RPMI 1640) subcutaneously into Balb/c mice.

For `CCn1nc(C)cc1C(=O)Nc1nc2cc(C(N)=O)cc(O)c2n1C/C=C/Cn1c(NC(=O)c2cc(C)nn2CC)nc2cc(C(N)=O)cc(OC)c21` [Compound 1, (E)-1-(4-(5-carbamoyl-2-(1-ethyl-3-methyl-1H-pyrazole-5-carboxamido)-7-hydroxy-1H-benzo[d]imidazol-1-yl)but-2-en-1-yl)-2-(1-ethyl-3-methyl-1H-pyrazole-5-carboxamido)-7-methoxy-1H-benzo[d]imidazole-5-carboxamide], the “tumor growth delay” value was “minimal tumor growth delay”.
